Holding throughout (type): cell-based
The test system of data set [1] is cells seeded in Millicell HA 13 mm inserts. As to the kind of experiment: Sodium fluorescein permeability assay. The note with it: 20 min. The method, then:
A 0.5 ml cell suspension containing 2×10^5 cells was seeded in Millicell HA 13 mm inserts (Millipore, Bedford, Mass.). The inserts were transferred into 24 well plates containing 0.5 ml of minimum essential medium (MEM) (BioWhittaker, Walkersville, Md.) per well. The plates were then incubated at 37° C. with 5 percent carbon dioxide for six days. Fresh media was added to the wells on days 2 through 6. On day 6 the inserts were used for the permeability assay.
Each insert was gently rinsed three times with 1 ml of Hanks' balanced salt solution (HBSS) using a 10 ml syringe, without a needle. An amount of 0.5 ml of test solution was added to separate inserts that had been placed in a fresh 24 well plate. Triplicate inserts were used for each test solution. The inserts were incubated in a 100 percent humidified chamber at 37 degrees Celsius for twenty minutes. Each series of triplicate samples was handled sequentially to allow exact timing of the treatment and subsequent steps. After incubation, each insert was individually rinsed five times with 1 ml HBSS using a 10 ml syringe without a needle, and then placed in a fresh 24 well plate containing 0.5 ml HBSS in each well. To each insert was added 0.5 ml of sodium fluorescein (3 mg/100 ml in HBSS). The inserts were incubated at room temperature for twenty minutes, removed from the wells, and the amount of sodium fluorescein was measured using a fluorometer at […]. Triplicate negative controls (HBSS solution) and positive controls consisting of sodium dodecyl sulphate (SDS) in water were included during these evaluations. Sodium fluorescein permeability assay results for composition numbers 1 and 14 are summarized below in Table 4.

Data set [2] concerns Candida albicans (ATCC 10231). As to the kind of experiment: Stand-alone biocidal test without organic soil. The note with it: Candida albicans, read-out: Stand-alone biocidal result (microbial log reduction) C. albicans. The method, then:
(§1) A test was conducted to study the microbiocidal efficacy of a solution containing a quaternary ammonium ester of the present invention employing borate buffered saline (BBS). The antimicrobial efficacy of each of the various compositions for the chemical disinfection of contact lenses was evaluated. Microbial challenge inoculums were prepared using Pseudomonas aeruginosa (ATCC 9027), Staphylococcus aureus (ATCC 6538), Serratia marcescens (ATCC 13880), Candida albicans (ATCC 10231) and Fusarium solani (ATCC 36031). The test organisms were cultured on appropriate agar and the cultures were harvested using sterile DPBST (Dulbecco's Phosphate Buffered Saline plus 0.05 percent weight/volume polysorbate 80) or a suitable diluent and transferred to a suitable vessel. Spore suspensions were filtered through sterile glass wool to remove hyphal fragments. Serratia marcescens, as appropriate, was filtered through a 1.2 mμ filter to clarify the suspension. After harvesting, the suspension was centrifuged at no more than 5000×g for a maximum of 30 minutes at 20 to 25° C. The supernatant was poured off and resuspended in DPBST or other suitable diluent. The suspension was centrifuged a second time, and resuspended in DPBST or other suitable diluent. All challenge bacterial and fungal cell suspensions were adjusted with DPBST or other suitable diluent to 1×10^7 to 1×10^8 cfu/ml. The appropriate cell concentration may be estimated by measuring the turbidity of the suspension, for example, using a spectrophotometer at a preselected wavelength, for example 490 nm. One tube was prepared containing a minimum of 10 ml of test solution per challenge organism. Each tube of the solution to be tested was inoculated with a suspension of the test organism sufficient to provide a final count of 1×10^5 to 1×10^6 cfu/ml, the volume of the inoculum not exceeding 1 percent of the sample volume. Dispersion of the inoculum was ensured by vortexing the sample for at least 15 seconds. The inoculated product was stored at 10 to 25° C. Aliquots in the amount of 1.0 ml were taken of the inoculated product for determination of viable counts after certain time periods of disinfection. The time points for the bacteria were, for example, 1, 2, 3 and 4 hours when the proposed regimen soaking time was four hours. Yeast and mold were tested at an additional timepoint of 16 hours (4 times the regimen time). The suspension was mixed well by vortexing vigorously for at least 5 seconds. The 1.0 ml aliquots removed at the specified time intervals were subjected to a suitable series of decimal dilutions in validated neutralizing media. The suspensions were mixed vigorously and incubated for a suitable period of time to allow for neutralization of the microbial agent at room temperature. The viable count of organisms was determined in appropriate dilutions by preparation of triplicate plates of trypticase soy (TSA) agar for bacteria and Sabouraud dextrose agar (SDA) for mold and yeast. The bacterial recovery plates were incubated at 30 to 35° C. for two to four days. The yeast was incubated at 20 to 30° C. for two to four days and mold recovery plates were incubated at 20 to 25° C. for three to seven days. The average number of colony forming units was determined on countable plates. Countable plates refer to 30 to 300 cfu/plates for bacteria and yeast, and 8 to 80 cfu/plate for mold except when colonies are observed only for the 10^0 or 10^−1 dilution plates. The microbial reduction was then calculated at the specified time points. […] Following inoculation in a validated neutralizing broth and incubation for an appropriate period of time, the inoculum control must be between 1.0×10^5 to 1.0×10^6 cfu/ml. […]

The test system of data set [3] is Staphylococcus aureus (ATCC 6538). In words: Stand-alone biocidal test without organic soil. Conditions: 25 ppm in BBS, without organic soil. The method, then:
as §1

Data set [4] deals with Fusarium solani (ATCC 36031). As to the kind of experiment: Stand-alone biocidal test without organic soil. Conditions: Fusarium solani, read-out: Stand-alone biocidal result (microbial log reduction) F. solani. The method, then: as §1
Data set [5] concerns Pseudomonas aeruginosa (ATCC 9027). As to the kind of experiment: Stand-alone biocidal test without organic soil. The note with it: 25 ppm in BBS, without organic soil. The method, then:
as §1

The subject of data set [6] is Serratia marcescens (ATCC 13880). In words: Stand-alone biocidal test without organic soil. The note with it: 25 ppm in BBS, without organic soil. The method, then:
as §1

Like-named read-outs stand apart in the source and are kept apart here. Bounds are passed on as bounds.

Take `CCCCCCCCCCCCCC(=O)OCCC[N+](C)(C)Cc1ccccc1` [Compound 1, N-myristoyloxypropyl-N-benzyl-N,N-dimethylammonium chloride]: the “Sodium fluorescein permeability, Fluorescence Units” value in data set [1] (5 ppm) was determined as 71 Fluorescence Units; in data set [1] (10 ppm) it was 71 Fluorescence Units; in data set [1] (15 ppm), 77 Fluorescence Units; in data set [1] (25 ppm), 76 Fluorescence Units; in data set [1] (100 ppm), 554 Fluorescence Units. Also, the log reduction at 25 ppm in data set [2] (ATCC10231, 1 h) was 3.6; in data set [2] (ATCC10231, 4 h) it was greater than 4.8; in data set [4] (ATCC36031, 1 h), 4; in data set [4] (ATCC36031, 4 h), 4.2. Moreover, the results for the “Stand-alone biocidal result (microbial log reduction) S. aureus” value in data set [3] (1 hr.) and in data set [3] (4 hr.) were 4.6 and greater than 4.8, respectively. Also, the “Stand-alone biocidal result (microbial log reduction) P. aeruginosa” value in data set [5] (1 hr.) and in data set [5] (4 hr.) was greater than 4.7 each time. For the same molecule, the “Stand-alone biocidal result (microbial log reduction) S. marcescens” value in data set [6] (1 hr.) is reported as 4.8; in data set [6] (4 hr.) it was greater than 4.8.

The values above are taken from US20040115160A1, “Quaternary ammonium esters for disinfection and preservation” (priority 2002, published 2004).
